US8227616B2, “Cyanopyridine antibacterial agents and methods of use thereof” (Wisconsin Alumni Research Foundation, priority 2006, dated 2012)
Converted amounts (≈) assume the structure as drawn.

Assays:
[1] = system: Methicillin-resistant S. aureus ATCC 33591 (MRSA); assay: MIC determination with authentic compounds resynthesized in solution; format: cell-based; conditions: Staphylococcus aureus; Table 3; authentic sample, only trans isomers of chalcones; error reflects step size in the serial dilutions
Protocol: (§1) For estimated MIC determination, DMSO was added to the dried compound residue obtained from a single spot to afford ca. 100 μL of a 2 mM stock solution. Aliquots (5 μL) of these solutions were added to a 96-well plate, followed by 195 μL of diluted S. aureus 10390 (10^6 CFUs/mL) to yield ca. 50 μM final concentrations. The plates were swirled for 1 h to ensure compound dissolution, incubated for 12 h at 37° C., and the absorbance at 595 nm was recorded using a plate reader. […] Actual MIC values were determined for lead compounds resynthesized in solution using an analogous procedure with solutions of known concentration (see).
(§2) Dose response growth inhibition curves were determined for each active compound (resynthesized in solution) against S. aureus 10390 (SA) and methicillin-resistant S. aureus 33591 (MRSA). […] MIC assays were performed in quadruplicate.

S. aureus ATCC 10390 [2] = assay: as above; format: cell-based, Staphylococcus aureus; parameters: MIC against S. aureus 10390: unit: uM; conditions: for MIC: Staphylococcus aureus, ATCC10390; for MIC against S. aureus 10390: values quoted in killing-curve protocol, unit not given
Protocol: as §1, §2

S. aureus ATCC 10390 [3] = assay: Kirby-Bauer disk diffusion assay on compound spots from cleaved macroarray; format: cell-based, Staphylococcus aureus; conditions: loadings 30 μg/spot, 18 h incubation
Protocol: While the heterocyclic libraries were being synthesized, the chalcone macroarrays were analyzed using various direct assay techniques such as the Kirby-Bauer disk diffusion assay (FIG. 2E). Bauer, A. W.; Kirby, […].; Turck, M. Technical Bulletin of the Registry of Medical Technologists 1966, 36, 49-52. For this assay, the macroarray members are punched out from the membrane, cleaved from the support with TFA vapor, neutralized with ammonia vapor, and then placed on an agar bed inoculated with S. aureus. After incubating overnight, different diameters of zones of inhibition are measured as a factor of potency as well as solubility in the medium. Ammonia vapor neutralization was key in the disk diffusion assay, otherwise residual TFA vapor created a false positive signature. However, in this method, macroarrays have to be made in triplicate one for a replicate and one for compound characterization. We first evaluated test chalcone macroarrays (3) in antibacterial assays against S. aureus. Because the macroarrays were prepared on cellulose filter paper, we had convenient access to the compounds in disk form for standard disk diffusion assays. Compound spots were punched out of the macroarrays, subjected to vapor phase cleavage with acid (TFA), and neutralized (NH3) to afford disks containing ca. 30 μg of adsorbed compound [8]. These disks were manually placed on lawns of S. aureus, and zones of inhibition were measured after an 18 h incubation period. […] However, this antibacterial assay format had drawbacks: (1) the entire sample of compound was consumed during the assay, and thus replicate arrays needed to be synthesized to confirm activity, and (2) manipulating large numbers of compound disks was relatively labor intensive. Compound spots were cleaved with TFA and neutralized with NH3 as described herein. […] Compound spots were placed onto the agar, the plate was incubated at 37° C. for 18 h, and the diameters of the zones of inhibition were measured. […] Compound spots were subjected to the TFA cleavage conditions described above. The spots were next subjected to NH3 vapor to neutralize any remaining TFA. […] Vials containing the spots (or intact macroarrays) were placed inside a small evaporating dish, and this was placed into the NH4OH solution. The Pyrex dish was covered, and NH3 vapor was allowed to slowly diffuse into the vials. After 1 h, the vials were removed from the NH3 chamber, and the spots were allowed to stand open in a fume hood for at least 15 min to vent prior to analysis in the following assays. This afforded dry, paper disks containing adsorbed compound. […] The plates were removed, and the diameters of the zones of inhibition were measured in mm using a ruler (see FIG. 1A).

S. aureus ATCC 10390 [4] = assay: Estimated MIC, solution-phase microdilution absorbance assay with crude macroarray spot stock solutions; format: cell-based, Staphylococcus aureus; conditions: for MIC: Staphylococcus aureus, ATCC10390, 12 h; for inhibition of S. aureus at the 12.5 μM level: macroarray stock solutions diluted four fold
Protocol: Spots from a new 69 member chalcone macroarray as well as the three heterocyclic macroarrays prepared earlier were punched out, cleaved, and eluted with acetonitrile. The resulting solutions were concentrated to a residue that was taken up in DMSO to form 2 mM stock solutions.
From the stock solutions, microdilution assays in a 96 well plate starting at 50 μM were performed in quadruplicate. Each well contained 5 μL of the stock solution as well as 195 μL of a S. aureus culture. The turbidity of each well was measured after incubating 12 hours using a standard plate reader. Active compounds can be further diluted and the assay repeated.
To acquire more quantitative antibacterial activity data about our compounds and verify our on-support assay results, we performed solution-phase absorbance assays that provided estimates of the minimum inhibitory concentration (MIC) of each macroarray member against S. aureus. Stock solutions (ca. 2 mM) were generated by cleaving and eluting 198 individual compounds from chalcone (3) and heterocyclic macroarrays (5, 7, and 8). […] The good overall purities of the crude macroarray compounds allowed for reasonable estimations of MICs.
as §1
Preparation of spot samples and controls. An aliquot of DMSO (ca. 100 μL depending on the loading of the parent hydroxyacetophenone) was added to the dried compound residue obtained after TFA cleavage and elution from a single spot. This afforded a 2.0 mM “spot stock” solution for each spot. A small aliquot of each “spot stock” solution was saved for subsequent LC-MS analysis.
For estimated MIC screens, 5.0 μL portions of the “spot stock” solutions were added to the appropriate wells in a sterile, polystyrene 96-well plate to yield ca. 50 μM solutions (dependent on the initial loading of hydroxyacetopheneone and compound purity). To the positive and negative control wells, 5.0 μL of DMSO were added (positive controls contained bacteria but no compound, while negative controls had neither compound nor bacteria). All estimated MIC assays were performed in quadruplicate. Note: the MIC value is defined as the lowest concentration where no bacterial growth occurs.
Representative estimated MIC assay procedure. This assay procedure is based in part on the method reported by Strøm et al.^xiii A 400 μL portion of overnight S. aureus 10390 culture was diluted with 100 mL of sterile LB broth to give ca. 10^6 CFUs per mL. Aliquots (195 μL) of this solution were added to all of the wells in a sterile 96-well plate (except for the negative control wells; 195 μL of sterile LB broth were added to these wells). The plates were placed on an orbital shaker table and gently swirled for 1 h to ensure compound dissolution, and then incubated (without shaking) for 12 h at 37° C. The absorbance at 595 nm was recorded using a plate reader.
The original “spot stock” solutions of these compounds were diluted with DMSO to give ca. 25 and 13 μM final concentrations and tested for inhibitory activities using the procedure described above.

[5] = system: B. subtilis subsp. spizizenii ATCC 6633; assay: MIC determination, species selectivity; format: cell-based; conditions: Bacillus subtilis, ATCC6633; authentic sample, only trans isomers of chalcones; error reflects step size
Protocol: (§3) Each compound from Table 3 was tested for inhibitory activity at 2.5, 5, 7.5, 10, 15, 20, 25, and 30 μM in the susceptible overlaid strains: B. subtilis ATCC 6633, S. epidermidis ATCC 12228, and K. pneumoniae ATCC 4352. MIC assays were run in quadruplicate as described above (with shaking).

[6] = system: S. epidermidis ATCC 12228; assay: MIC determination, species selectivity; format: cell-based; conditions: Staphylococcus epidermidis, ATCC12228; authentic sample, only trans isomers of chalcones; error reflects step size
Protocol: as §3

S. aureus 10390 = assay: Time-dependent bacterial killing curves; format: cell-based, Staphylococcus aureus; conditions: 0.5x to 4x MIC, 0-6 h
Protocol: Solutions of compounds 4Bv, 6Ao, 9Cf, and linezolid were prepared in DMSO over a range of concentrations. […] At 0, 2, 4, and 6 h time points, […] samples were withdrawn from the test tubes, diluted into 10 mL of LB broth in a test tube, and swabbed in duplicate on agar plates to determine CFUs. These plates were incubated at 37° C. for 24 h, after which time the colonies were counted visually. […] Instead, 200 μL was removed from the test tube and directly swabbed on the agar plates.

[7] = Table 2, authentic sample synthesized according to standard techniques, read-out: observed MIC
[8] = Table 3, authentic sample, only trans isomers of chalcones, error reflects step size in the serial dilutions, read-out: S. aureus MIC
[9] = Table 2, serial dilution of stock solutions obtained by SPOT-synthesis, read-out: estimated MIC range
[10] = Table 3, serial dilution of spot stock solutions of crude macroarray compounds, read-out: S. aureus Estimated MIC range

SMILES	MIC [1] [µM]	MIC (S. aureus ATCC 10390 [2]; [7]) [µM]	MIC (S. aureus ATCC 10390 [2]; [8]) [µM]	MIC (S. aureus ATCC 10390 [4]; [9]) [µM]	MIC (S. aureus ATCC 10390 [4]; [10]) [µM]	MIC [5] [µM]	MIC [6] [µM]	Zones of inhibition (S. aureus ATCC 10390 [3]) [mm]	MIC against S. aureus 10390 (S. aureus ATCC 10390 [2])	mode of activity (bacteriostatic or bactericidal) (S. aureus 10390)	inhibition of S. aureus at the 12.5 μM level (S. aureus ATCC 10390 [4])
COc1cc(C(=O)/C=C/c2ccc(Br)cc2)ccc1O [Compound 4Cf, 4-bromo-4′-hydroxy-3′-methoxy-chalcone]	> 250	> 250	> 250	> 50	> 50			< 1			
Cc1nc(-c2ccc(O)cc2)cc(-c2cccc(Cl)c2Cl)c1C#N [Compound 6Al, 4-(2,3-dichlorophenyl)-6-(4-hydroxyphenyl)-2-methyl-3-cyanopyridine]	10 ± 0.5 (≈ 3.55 µg/mL)	8.7 ± 1.3 (≈ 3.09 µg/mL)	10 ± 0.5 (≈ 3.55 µg/mL)	12.5 to 25 (≈ 4.44 to 8.88 µg/mL)	12.5 to 25 (≈ 4.44 to 8.88 µg/mL)	6.3 ± 1.2 (≈ 2.24 µg/mL)	12.5 ± 2.5 (≈ 4.44 µg/mL)				
CN[C@H](CC(C)C)C(=O)N[C@H]1C(=O)N[C@@H](CC(N)=O)C(=O)N[C@H]2C(=O)N[C@H]3C(=O)N[C@H](C(=O)N[C@H](C(=O)O)c4cc(O)cc(O)c4-c4cc3ccc4O)[C@H](O)c3ccc(c(Cl)c3)Oc3cc2cc(c3O[C@@H]2O[C@H](CO)[C@@H](O)[C@H](O)[C@H]2O[C@H]2C[C@](C)(N)[C@H](O)[C@H](C)O2)Oc2ccc(cc2Cl)[C@H]1O [vancomycin, reference compound]								20			
O=C(O)c1cn(C2CC2)c2cc(N3CCNCC3)c(F)cc2c1=O [Ciprofloxacin, ciprofloxacin, reference compound]	0.9 ± 0.1 (≈ 0.298 µg/mL)	0.75 ± 0.12 (≈ 0.249 µg/mL)	0.6 ± 0.1 (≈ 0.199 µg/mL)								

Second part, led by results:

MIC [1] [µM]	MIC (S. aureus ATCC 10390 [2]; [7]) [µM]	MIC (S. aureus ATCC 10390 [2]; [8]) [µM]	MIC (S. aureus ATCC 10390 [4]; [9]) [µM]	MIC (S. aureus ATCC 10390 [4]; [10]) [µM]	MIC [5] [µM]	MIC [6] [µM]	SMILES	Zones of inhibition (S. aureus ATCC 10390 [3]) [mm]	MIC against S. aureus 10390 (S. aureus ATCC 10390 [2])	mode of activity (bacteriostatic or bactericidal) (S. aureus 10390)	inhibition of S. aureus at the 12.5 μM level (S. aureus ATCC 10390 [4])
8 ± 1 (≈ 2.7 µg/mL)	6 ± 0.5 (≈ 2.02 µg/mL)	10 ± 1 (≈ 3.37 µg/mL)					CC(=O)NC[C@H]1CN(c2ccc(N3CCOCC3)c(F)c2)C(=O)O1 [Linezolid, linezolid, reference compound]		~10.0	bacteriostatic	
13.4 ± 0.9 (≈ 4.76 µg/mL)	10 ± 1 (≈ 3.55 µg/mL)	11.6 ± 0.9 (≈ 4.12 µg/mL)	6.25 to 12.5 (≈ 2.22 to 4.44 µg/mL)	< 12.5	22.5 ± 2.5 (≈ 7.99 µg/mL)	17.5 ± 2.5 (≈ 6.22 µg/mL)	Cc1nc(-c2cccc(O)c2)cc(-c2ccc(Cl)cc2Cl)c1C#N [Compound 6Bt, 4-(2,4-dichlorophenyl)-6-(3-hydroxyphenyl)-2-methyl-3-cyanopyridine]				complete inhibition
7.5 ± 1.2 (≈ 2.92 µg/mL)	6 ± 0.5 (≈ 2.34 µg/mL)	7.5 ± 1.2 (≈ 2.92 µg/mL)	6.25 to 12.5 (≈ 2.44 to 4.87 µg/mL)	< 12.5	3.8 ± 1.2 (≈ 1.48 µg/mL)	6.3 ± 1.2 (≈ 2.45 µg/mL)	Cc1nc(-c2ccc(O)cc2)cc(-c2c(Cl)ccc(Cl)c2Cl)c1C#N [Compound 6Ao, 6-(4-hydroxyphenyl)-2-methyl-4-(2,3,6-trichlorophenyl)-3-cyanopyridine]		~7.5	bactericidal	complete inhibition
31.2 ± 1.2 (≈ 11.6 µg/mL)		32.5 ± 1.2 (≈ 12.1 µg/mL)		25 to 50 (≈ 9.28 to 18.6 µg/mL)	17.5 ± 2.5 (≈ 6.5 µg/mL)	> 30	COc1cc(-c2cc(-c3ccc(Br)cc3)nc(C)n2)ccc1O [Compound 9Cf, 4-(4-bromophenyl)-6-(4-hydroxy-3-methoxyphenyl)-2-methylpyrimidine]		~32.5	bacteriostatic	
